From patent US9546164B2 (GENENTECH, INC., priority 2013, dated 2017)
Where a name gives a salt, the structure may show the parent alone.

Target: hNav1.7 (Homo sapiens (Human), UniProt Q15858)
Assay: Tritiated sulfonamide competitive binding to membranes from cells expressing hNav1.7 and the β1 subunit;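 further: Filter-bound radioactivity counted by liquid scintillation, nonspecific binding defined with excess unlabelled ligand, IC50 fitted to percent inhibition of specific binding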
Conditions: not given

hNav1.7, sequence (Q15858 other isoform, or with tags, fused parts or gaps): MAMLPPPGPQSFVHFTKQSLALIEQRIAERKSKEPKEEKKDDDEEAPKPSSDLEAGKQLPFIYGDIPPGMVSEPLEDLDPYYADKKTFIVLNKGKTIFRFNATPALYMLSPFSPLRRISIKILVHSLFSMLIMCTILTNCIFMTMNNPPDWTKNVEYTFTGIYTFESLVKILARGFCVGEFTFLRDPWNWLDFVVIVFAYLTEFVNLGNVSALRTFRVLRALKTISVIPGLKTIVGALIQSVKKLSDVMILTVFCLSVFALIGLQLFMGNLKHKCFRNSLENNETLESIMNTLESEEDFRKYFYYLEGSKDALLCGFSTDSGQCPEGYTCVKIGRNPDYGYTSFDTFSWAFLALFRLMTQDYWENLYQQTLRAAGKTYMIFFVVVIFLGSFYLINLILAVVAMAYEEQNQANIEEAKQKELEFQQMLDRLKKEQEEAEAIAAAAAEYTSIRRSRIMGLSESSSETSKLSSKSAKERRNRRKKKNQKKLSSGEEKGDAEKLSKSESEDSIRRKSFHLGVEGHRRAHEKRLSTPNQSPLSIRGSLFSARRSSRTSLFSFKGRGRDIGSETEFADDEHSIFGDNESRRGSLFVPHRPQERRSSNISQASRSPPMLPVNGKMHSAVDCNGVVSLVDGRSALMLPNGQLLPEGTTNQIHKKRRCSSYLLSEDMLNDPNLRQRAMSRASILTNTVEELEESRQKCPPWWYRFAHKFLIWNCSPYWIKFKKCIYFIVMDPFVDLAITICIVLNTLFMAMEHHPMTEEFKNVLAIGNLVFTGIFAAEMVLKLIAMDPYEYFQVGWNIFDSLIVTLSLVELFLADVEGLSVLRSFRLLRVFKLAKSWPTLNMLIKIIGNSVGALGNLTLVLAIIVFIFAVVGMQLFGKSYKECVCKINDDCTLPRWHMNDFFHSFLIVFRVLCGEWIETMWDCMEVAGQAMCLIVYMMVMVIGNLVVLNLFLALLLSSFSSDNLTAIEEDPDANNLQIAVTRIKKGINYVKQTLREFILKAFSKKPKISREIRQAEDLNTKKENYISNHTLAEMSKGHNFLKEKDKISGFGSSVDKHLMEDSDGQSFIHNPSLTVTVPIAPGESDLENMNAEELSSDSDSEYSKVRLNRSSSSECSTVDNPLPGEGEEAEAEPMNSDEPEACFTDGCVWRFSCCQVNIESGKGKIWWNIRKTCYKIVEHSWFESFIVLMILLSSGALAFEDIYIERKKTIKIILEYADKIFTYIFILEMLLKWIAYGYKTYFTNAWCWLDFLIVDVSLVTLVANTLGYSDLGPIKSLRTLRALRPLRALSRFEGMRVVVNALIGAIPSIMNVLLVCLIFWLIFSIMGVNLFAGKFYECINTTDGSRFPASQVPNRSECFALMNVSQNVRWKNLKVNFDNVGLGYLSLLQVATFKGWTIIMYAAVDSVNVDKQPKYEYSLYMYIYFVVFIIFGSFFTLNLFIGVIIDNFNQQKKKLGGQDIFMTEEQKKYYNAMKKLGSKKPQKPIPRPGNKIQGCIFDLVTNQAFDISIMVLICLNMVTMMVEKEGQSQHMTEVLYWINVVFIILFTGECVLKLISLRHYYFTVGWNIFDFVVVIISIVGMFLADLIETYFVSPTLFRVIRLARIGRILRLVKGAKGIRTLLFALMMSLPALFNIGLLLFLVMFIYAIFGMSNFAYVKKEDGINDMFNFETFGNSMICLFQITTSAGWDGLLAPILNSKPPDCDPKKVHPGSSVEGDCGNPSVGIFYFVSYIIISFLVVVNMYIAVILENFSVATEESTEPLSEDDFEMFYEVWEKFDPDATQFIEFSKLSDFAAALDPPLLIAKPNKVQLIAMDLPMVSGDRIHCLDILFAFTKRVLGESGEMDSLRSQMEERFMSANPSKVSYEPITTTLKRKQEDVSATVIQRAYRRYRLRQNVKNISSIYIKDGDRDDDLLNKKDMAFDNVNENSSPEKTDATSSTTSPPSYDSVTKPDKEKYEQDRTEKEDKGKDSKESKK
hNav1.7, sequence (Q07699 19-218 partner): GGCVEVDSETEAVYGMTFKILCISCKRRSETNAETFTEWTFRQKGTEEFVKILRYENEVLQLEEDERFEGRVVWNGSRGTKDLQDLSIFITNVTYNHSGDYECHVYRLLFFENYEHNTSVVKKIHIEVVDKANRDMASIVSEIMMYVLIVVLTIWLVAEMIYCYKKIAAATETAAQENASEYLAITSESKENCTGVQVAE

`O=C(NS(=O)(=O)C1CC1)c1cc(C2CC2)c(CN2CCC(CF)(c3ccc(F)cc3)CC2)cc1F` [Example 514, 5-cyclopropyl-N-(cyclopropylsulfonyl)-2-fluoro-4-((4-(fluoromethyl)-4-(4-fluorophenyl)piperidin-1-yl)methyl)benzamide, trifluoroacetic acid salt] was tested. Which IC50 did it give?
Its IC50 is 24.4 nM.

Which IC50 does the source give for `O=C(NS(=O)(=O)C1CC1)c1cc(C2CC2)c(CN2C[C@@H]3C[C@H]2CN3S(=O)(=O)c2cc(Cl)cc(Cl)c2)cc1F` [Example 559, 5-cyclopropyl-N-(cyclopropylsulfonyl)-4-(((1S,4S)-5-((3,5-dichlorophenyl)sulfonyl)-2,5-diazabicyclo[2.2.1]heptan-2-yl)methyl)-2-fluorobenzamide, trifluoroacetic acid salt] here?
Its IC50 is 18.9 nM.

Same assay, conditions: read-out: Ligand Binding Assay; 100 pM [3H]compound, membranes with hNav1.7 and β1 subunit, 18 h, room temperature

With `CS(=O)(=O)NC(=O)c1cc(C2CC2)c(OC[C@@H]2C[C@H]3CC[C@@H](C2)N3Cc2cc(C(F)(F)F)ccc2Cl)cc1F` [Example 399, 4-(((1R,3S,5S)-8-(2-chloro-5-(trifluoromethyl)benzyl)-8-azabicyclo[3.2.1]octan-3-yl)methoxy)-5-cyclopropyl-2-fluoro-N-(methylsulfonyl)benzamide, trifluoroacetic acid salt] as the compound, how does the IC50 read?
Its IC50 is 4.6 nM.

For `O=C(NS(=O)(=O)C1CC1)c1cc(C2CC2)c(OCC2CCN(S(=O)(=O)c3cc(Cl)c(Br)cc3F)CC2)cc1F` [Example 367, 4-((1-((4-bromo-5-chloro-2-fluorophenyl)sulfonyl)piperidin-4-yl)methoxy)-5-cyclopropyl-N-(cyclopropylsulfonyl)-2-fluorobenzamide], which IC50 is on record?
Its IC50 is 8.3 nM.

With `CS(=O)(=O)NC(=O)c1cc(C2CC2)c(OC[C@@H]2CCN(Cc3cc(Cl)cc(Cl)c3)C(=O)C2)cc1F` (single isomer, unassigned) [Example 234] as the compound, how does the IC50 read?
Its IC50 is 170 nM.

How did the IC50 turn out when `CC1(COc2cc(F)c(C(=O)NS(C)(=O)=O)cc2C2CC2)CCN(C(c2ccccc2)c2ccccc2)CC1` [Example 574, 4-((1-benzhydryl-4-methylpiperidin-4-yl)methoxy)-5-cyclopropyl-2-fluoro-N-(methylsulfonyl)benzamide] was run?
Its IC50 is 2.9 nM.

`COc1ccc(CN2CCC[C@@H](Oc3cc(F)c(C(=O)NS(C)(=O)=O)cc3C3CC3)C2)cc1OC` [Example 430, (R)-5-cyclopropyl-4-((1-(3,4-dimethoxybenzyl)piperidin-3-yl)oxy)-2-fluoro-N-(methylsulfonyl)benzamide, trifluoroacetic acid salt] was tested. Which IC50 did it give?
Its IC50 is 533 nM.

`CS(=O)(=O)NC(=O)c1cc(C2CC2)c(OCC2CCN(CC3(C(F)(F)F)CC3)CC2)cc1F` [Example 252, 5-cyclopropyl-2-fluoro-N-(methylsulfonyl)-4-((1-((1-(trifluoromethyl)cyclopropyl)methyl)piperidin-4-yl)methoxy)benzamide] was tested. Which IC50 did it give?
The IC50 was 50 nM.

With `CC1(COc2cc(F)c(C(=O)NS(=O)(=O)C3CC3)cc2C2CC2)CN(C(c2ccccc2)c2cc(Cl)cc(Cl)c2)C1` (centres unmarked) [Example 421, 5-cyclopropyl-N-(cyclopropylsulfonyl)-4-((1-((3,5-dichlorophenyl)(phenyl)methyl)-3-methylazetidin-3-yl)methoxy)-2-fluorobenzamide, trifluoroacetic acid salt] as the compound, how does the IC50 read?
Its IC50 is 2.5 nM.

For `C[C@@H](c1cc(Cl)cc(Cl)c1)N1CCC(COc2cc(F)c(C(=O)NS(=O)(=O)C3CC3)cc2Cl)CC1` [Example 403, (S)-5-chloro-N-(cyclopropylsulfonyl)-4-((1-(1-(3,5-dichlorophenyl)ethyl)piperidin-4-yl)methoxy)-2-fluorobenzamide, trifluoroacetic acid salt], which IC50 is on record?
Its IC50 is 17 nM.

With `CS(=O)(=O)NC(=O)c1cc(C2CC2)c(CN2[C@@H]3CC[C@H]2C[C@@H](Oc2cc(Cl)cc(OC(F)(F)F)c2)C3)cc1F` [Example 560, 4-(((1R,3r,5S)-3-(3-chloro-5-(trifluoromethoxy)phenoxy)-8-azabicyclo[3.2.1]octan-8-yl)methyl)-5-cyclopropyl-2-fluoro-N-(methylsulfonyl)benzamide, trifluoroacetic acid salt] as the compound, how does the IC50 read?
Its IC50 is 2.8 nM.
